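Cells were grown in 96-well plates and exposed to each compound for 48 hours at five concentrations; endpoints were interpolated linearly between bracketing concentrations, or set to the highest concentration if not reached. Here, GI50 denotes the concentration required for 50% inhibition of growth.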 Calls of active or inactive are those of the source. Rule as the data show it: active = GI50 up to about 1.1 µM and inactive = higher.
Key:
Experiment in all cases: NCI-60 cell line screen, 48 h
[1] = test system: HCT-15
[2] = test system: BT-549
[3] = test system: SK-OV-3
[4] = test system: SF-268
[5] = test system: M14
[6] = test system: UACC-62
[7] = test system: K562
[8] = test system: 786-0
[9] = test system: SW-620
[10] = test system: HT-29
[11] = test system: SNB-78
[12] = test system: COLO 205
[13] = test system: DLD-1
[14] = test system: OVCAR-8
[15] = test system: T47D
[16] = test system: UACC-257
[17] = test system: KM-20L2
[18] = test system: OVCAR-5
[19] = test system: HOP-62
[20] = test system: OVCAR-3
[21] = test system: LOX IMVI
[22] = test system: A549
[23] = test system: MDA-N
[24] = test system: SF-539
[25] = test system: NCI/ADR-RES
[26] = test system: RXF 393
[27] = test system: PC-3
[28] = test system: A498
[29] = test system: NCI-H522
[30] = test system: RPMI-8226
[31] = test system: SN12C
[32] = test system: CCRF-CEM
[33] = test system: NCI-H460
[34] = test system: IGROV-1
[35] = test system: TK-10
[36] = test system: M19-MEL
[37] = test system: Hs-578T
[38] = test system: SK-MEL-2
[39] = test system: CAKI-1
[40] = test system: HOP-18
[41] = test system: MOLT-4
[42] = test system: Malme-3M
[43] = test system: DU-145
[44] = test system: MDA-MB-435
[45] = test system: MDA-MB-231
[46] = test system: SK-MEL-28
[47] = test system: EKVX
[48] = test system: HCT-116
[49] = test system: KM12
[50] = test system: HCC 2998
[51] = test system: U-251
[52] = test system: SNB-75
[53] = test system: HOP-92
[54] = test system: NCI-H23
[55] = test system: SK-MEL-5
[56] = test system: SR
[57] = test system: LXFL 529
[58] = test system: ACHN
[59] = test system: SF-295
[60] = test system: SNB-19
[61] = test system: OVCAR-4
[62] = test system: UO-31
[63] = test system: NCI-H226
[64] = test system: MCF7
[65] = test system: HL-60
[66] = test system: DMS-114
[67] = test system: DMS-273
[68] = test system: XF498

Measured: GI50

COc1ccc(Cl)cc1NC(=O)c1cccc([N+](=O)[O-])c1O
21.8 µM: [1]
inactive: [2] 4.37 µM | [3] 24.7 µM | [4] 17.9 µM | [5] 24.4 µM | [6] 6.82 µM | [7] 32.1 µM | [8] 16.8 µM | [9] 22.7 µM | [10] 19.8 µM | [11] 19.4 µM | [12] 13.5 µM | [13] 8.95 µM | [14] 17.8 µM | [15] 9.25 µM | [16] 15.2 µM | [17] 15 µM | [18] 27.8 µM | [19] 13.4 µM | [20] 5.19 µM | [21] 13.7 µM | [22] 11.2 µM | [23] 19.8 µM | [24] 16.1 µM | [25] 10 µM | [26] 12 µM | [27] 9.14 µM | [28] 5.7 µM | [29] 6.49 µM | [30] 5.07 µM | [31] 12.6 µM | [32] 16 µM | [33] 15.7 µM | [34] 8.34 µM | [35] 32.9 µM | [36] 9.79 µM | [37] 17.5 µM | [38] 4.17 µM | [39] 16.2 µM | [40] 2.51 µM | [41] 16.8 µM | [42] 4.97 µM | [43] 23.7 µM | [44] 14.4 µM | [45] 24.8 µM | [46] 11.7 µM | [47] 9.82 µM | [48] 16.6 µM | [49] 19.5 µM | [50] 14 µM | [51] 11.9 µM | [52] 17.8 µM | [53] 3 µM | [54] 10.4 µM | [55] 4 µM | [56] 17.5 µM | [57] 8.43 µM | [58] 12.4 µM | [59] 17.8 µM | [60] 8.97 µM | [61] 10.2 µM | [62] 7.35 µM | [63] 15 µM | [64] 20.9 µM | [65] 19.1 µM

NC(=O)/C=C/C(=O)O
inactive: [3] > 5000 µM | [4] > 5000 µM | [5] > 5000 µM | [6] > 5000 µM | [7] > 5000 µM | [8] > 5000 µM | [9] > 5000 µM | [10] > 5000 µM | [11] > 5000 µM | [12] > 5000 µM | [13] > 5000 µM | [14] > 5000 µM | [66] > 5000 µM | [16] > 5000 µM | [18] > 5000 µM | [19] > 5000 µM | [21] > 5000 µM | [22] > 5000 µM | [24] > 5000 µM | [26] > 5000 µM | [29] > 5000 µM | [30] > 5000 µM | [31] > 5000 µM | [32] > 5000 µM | [33] > 5000 µM | [34] > 5000 µM | [35] > 5000 µM | [36] > 5000 µM | [38] > 5000 µM | [40] > 5000 µM | [41] > 5000 µM | [42] > 5000 µM | [46] > 5000 µM | [48] > 5000 µM | [67] > 5000 µM | [49] > 5000 µM | [51] > 5000 µM | [52] > 5000 µM | [53] > 5000 µM | [54] > 5000 µM | [55] > 5000 µM | [56] > 5000 µM | [57] > 5000 µM | [58] > 5000 µM | [59] > 5000 µM | [61] > 5000 µM | [62] > 5000 µM | [63] > 5000 µM | [65] > 5000 µM
> 5000 µM: [1]

CC(=O)NC1=CC(=O)c2cc(C)cc(O)c2C1=O
2.88 µM: [1]
active: [44] 0.721 µM | [46] 0.822 µM
inactive: [2] 7.06 µM | [3] > 63.2 µM | [4] 9.33 µM | [5] 1.75 µM | [6] 2.02 µM | [7] 3.74 µM | [8] 13.7 µM | [9] 3.41 µM | [10] 16.9 µM | [12] 5.5 µM | [14] 2.44 µM | [15] 14.5 µM | [16] 1.85 µM | [18] 12.5 µM | [19] 17.9 µM | [20] 2.65 µM | [21] 1.53 µM | [22] 7.5 µM | [23] 1.53 µM | [24] 6.84 µM | [25] 5.77 µM | [26] 12.5 µM | [27] 12.5 µM | [28] 11 µM | [29] 8.83 µM | [30] 2.92 µM | [31] 5.09 µM | [32] 4.47 µM | [33] 14.9 µM | [34] 11.8 µM | [35] 21 µM | [37] 31.8 µM | [38] 4.72 µM | [39] 17.8 µM | [41] 4.85 µM | [42] 1.9 µM | [43] 5.82 µM | [45] 7.19 µM | [47] 17.2 µM | [48] 5.51 µM | [49] 9.84 µM | [50] 2.03 µM | [51] 9.33 µM | [52] 18.7 µM | [53] 8.73 µM | [54] 1.72 µM | [55] 1.14 µM | [56] 9.1 µM | [58] 9.66 µM | [59] 19.2 µM | [60] 28.1 µM | [61] 8.49 µM | [62] 7.59 µM | [63] 19.8 µM | [64] 2.39 µM | [65] 1.88 µM

Cc1ccc(-n2c(C)nc3c2C(=O)c2ccccc2C3=O)cc1
7.53 µM: [1]
inactive: [3] > 100 µM | [4] 7.41 µM | [5] 58.2 µM | [6] 8.57 µM | [7] 5.86 µM | [8] 18.5 µM | [9] 33.5 µM | [10] 11.9 µM | [11] > 100 µM | [12] 14.6 µM | [13] 9.33 µM | [14] 17.4 µM | [16] 19.1 µM | [17] 18.3 µM | [19] 41.2 µM | [20] 21.8 µM | [68] 50.5 µM | [21] 7.98 µM | [22] 28.9 µM | [24] 10.4 µM | [26] > 100 µM | [29] 34.7 µM | [31] 28.4 µM | [32] 11.1 µM | [33] 4.44 µM | [34] 27.9 µM | [35] > 100 µM | [36] 12 µM | [38] 40.7 µM | [41] > 100 µM | [42] 20.4 µM | [46] 52.6 µM | [47] > 100 µM | [48] 5.73 µM | [67] 9.86 µM | [49] > 100 µM | [50] 57.5 µM | [51] 9.46 µM | [52] 34.4 µM | [53] 49.4 µM | [54] 25.9 µM | [55] 15.2 µM | [56] > 100 µM | [57] 9.84 µM | [58] 27.9 µM | [59] 25 µM | [60] 71.9 µM | [61] 82.8 µM | [62] 66.7 µM | [63] > 100 µM | [65] 9.14 µM

Source: ChEMBL document CHEMBL1201862, “PubChem BioAssay data set” (2004)
